Measurements reported in patent US6534525B1, “2-substituted piperidine analogs and their use as subtype-selective NMDA receptor antagonists” (Warner-Lambert & Company, priority 1995, dated 2003).
Where a name gives a salt, the structure may show the parent alone. Read-outs that look alike come from different tables or passages of the source.

Key:
[1] = target: NMDA receptor subunits 1A/2A (NR1A+NR2A) (Rattus norvegicus, UniProt P35439+Q00959); assay: Electrophysiological assay at cloned NMDA receptor subunits expressed in Xenopus oocytes, 1A/2A; type: cell-based
Chain of NMDA receptor subunits 1A/2A (NR1A+NR2A) (Q00959 23-1464, other chains not shown): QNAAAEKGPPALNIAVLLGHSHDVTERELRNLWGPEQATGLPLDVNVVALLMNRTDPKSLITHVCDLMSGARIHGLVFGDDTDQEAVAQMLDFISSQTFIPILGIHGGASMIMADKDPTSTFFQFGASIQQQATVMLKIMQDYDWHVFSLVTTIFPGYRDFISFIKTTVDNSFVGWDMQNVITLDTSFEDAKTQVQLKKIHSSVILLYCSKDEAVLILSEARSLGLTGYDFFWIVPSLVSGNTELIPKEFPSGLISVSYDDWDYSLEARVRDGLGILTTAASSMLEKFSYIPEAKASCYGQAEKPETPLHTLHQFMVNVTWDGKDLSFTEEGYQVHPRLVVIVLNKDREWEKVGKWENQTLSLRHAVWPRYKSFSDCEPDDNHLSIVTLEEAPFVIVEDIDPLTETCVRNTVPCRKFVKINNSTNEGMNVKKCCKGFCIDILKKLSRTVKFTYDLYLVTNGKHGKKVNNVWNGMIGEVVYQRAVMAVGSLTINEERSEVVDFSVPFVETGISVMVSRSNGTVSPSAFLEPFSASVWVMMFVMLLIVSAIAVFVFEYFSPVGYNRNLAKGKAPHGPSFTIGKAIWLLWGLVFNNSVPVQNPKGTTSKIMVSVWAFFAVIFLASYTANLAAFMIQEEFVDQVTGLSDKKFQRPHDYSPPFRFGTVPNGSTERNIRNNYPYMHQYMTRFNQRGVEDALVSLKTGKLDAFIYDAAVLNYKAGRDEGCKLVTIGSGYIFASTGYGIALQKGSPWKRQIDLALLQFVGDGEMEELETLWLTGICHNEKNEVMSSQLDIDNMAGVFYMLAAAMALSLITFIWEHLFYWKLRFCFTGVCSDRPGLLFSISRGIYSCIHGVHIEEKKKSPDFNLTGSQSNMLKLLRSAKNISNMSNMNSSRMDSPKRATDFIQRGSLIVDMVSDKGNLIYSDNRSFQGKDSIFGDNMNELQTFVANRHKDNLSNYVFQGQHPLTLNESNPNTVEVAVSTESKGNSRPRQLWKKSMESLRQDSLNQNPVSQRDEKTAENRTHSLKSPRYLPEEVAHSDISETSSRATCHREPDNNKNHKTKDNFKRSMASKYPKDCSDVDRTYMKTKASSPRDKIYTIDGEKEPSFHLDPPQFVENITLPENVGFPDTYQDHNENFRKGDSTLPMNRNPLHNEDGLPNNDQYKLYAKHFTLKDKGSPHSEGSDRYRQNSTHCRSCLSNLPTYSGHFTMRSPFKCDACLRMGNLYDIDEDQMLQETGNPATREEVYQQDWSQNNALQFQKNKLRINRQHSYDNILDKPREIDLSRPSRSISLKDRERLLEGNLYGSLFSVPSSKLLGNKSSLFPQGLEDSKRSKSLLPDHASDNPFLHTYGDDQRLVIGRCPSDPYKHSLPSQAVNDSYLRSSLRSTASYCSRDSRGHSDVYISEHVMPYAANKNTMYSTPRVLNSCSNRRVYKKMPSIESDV
Procedure: (§1) Electrophysiological Assays at NMDA Receptor Subunits
(§2) The clones were transformed into appropriate host bacteria and plasmid preparations were made with conventional DNA purification techniques. A sample of each clone was linearized by restriction enzyme digestion and cRNA was synthesized with T3 RNA polymerase. The cRNA was diluted to 400 ng/μl and stored in 1 μl aliquots at −80° C. until injection.
(§3) The Xenopus oocyte Expression System
(§4) Follicle-enclosed oocytes were micro-injected with 1:1 mixtures of cRNA:NR1A+NR2A, 2B, 2C or 2D; injecting ˜2,5, or 20 ng of RNA encoding each receptor subunit. NR1A encoding cRNA was injected alone at ˜20 ng. Oocytes were stored in Barth's medium containing (in mM):NaCl, 88; KCl, 1; CaCl2, 0.41; Ca(NO3)2, 0.33; MgSO4, 0.82 NaHCO3, 2.4; HEPES 5, pH 7.4, with 0.1 mg/ml gentamicin sulphate. While oocytes were still surrounded by enveloping ovarian tissues the Barth's medium was supplemented with 0.1% bovine serum.
(§5) Electrical recordings were made using a conventional two-electrode voltage clamp (Dagan TEV-200) over periods ranging between 3-14 days following injection. […] Drugs were applied by bath perfusion. Using oocytes expressing different subunit combinations of NMDA receptor, NMDA currents were activated by co-application of glutamate and glycine. Inhibitory potency of the novel antagonists was assessed on responses elicited by fixed concentrations of glutamate and glycine, by measuring reductions in current induced by progressively increasing concentrations of antagonists.
(§6) Concentration-inhibition curves were fit with equation 1.
(§7) in which Icontrol is the current evoked by agonists alone, pIC50=−log IC50, IC50 is the concentration of antagonist that produces half maximal inhibition, and n is the slope factor. […] For incomplete curves analysis by fitting was unreliable and IC50 values were calculated by simple regression over linear portions of the curves (Origin: Microcal Software).

[2] = target: NMDA receptor subunits 1A/2B (NR1A+NR2B) (Rattus norvegicus, UniProt P35439+Q00960); assay: Electrophysiological assay at cloned NMDA receptor subunits expressed in Xenopus oocytes, 1A/2B; type: cell-based
Chain of NMDA receptor subunits 1A/2B (NR1A+NR2B) (Q00960 27-1482, other chains not shown): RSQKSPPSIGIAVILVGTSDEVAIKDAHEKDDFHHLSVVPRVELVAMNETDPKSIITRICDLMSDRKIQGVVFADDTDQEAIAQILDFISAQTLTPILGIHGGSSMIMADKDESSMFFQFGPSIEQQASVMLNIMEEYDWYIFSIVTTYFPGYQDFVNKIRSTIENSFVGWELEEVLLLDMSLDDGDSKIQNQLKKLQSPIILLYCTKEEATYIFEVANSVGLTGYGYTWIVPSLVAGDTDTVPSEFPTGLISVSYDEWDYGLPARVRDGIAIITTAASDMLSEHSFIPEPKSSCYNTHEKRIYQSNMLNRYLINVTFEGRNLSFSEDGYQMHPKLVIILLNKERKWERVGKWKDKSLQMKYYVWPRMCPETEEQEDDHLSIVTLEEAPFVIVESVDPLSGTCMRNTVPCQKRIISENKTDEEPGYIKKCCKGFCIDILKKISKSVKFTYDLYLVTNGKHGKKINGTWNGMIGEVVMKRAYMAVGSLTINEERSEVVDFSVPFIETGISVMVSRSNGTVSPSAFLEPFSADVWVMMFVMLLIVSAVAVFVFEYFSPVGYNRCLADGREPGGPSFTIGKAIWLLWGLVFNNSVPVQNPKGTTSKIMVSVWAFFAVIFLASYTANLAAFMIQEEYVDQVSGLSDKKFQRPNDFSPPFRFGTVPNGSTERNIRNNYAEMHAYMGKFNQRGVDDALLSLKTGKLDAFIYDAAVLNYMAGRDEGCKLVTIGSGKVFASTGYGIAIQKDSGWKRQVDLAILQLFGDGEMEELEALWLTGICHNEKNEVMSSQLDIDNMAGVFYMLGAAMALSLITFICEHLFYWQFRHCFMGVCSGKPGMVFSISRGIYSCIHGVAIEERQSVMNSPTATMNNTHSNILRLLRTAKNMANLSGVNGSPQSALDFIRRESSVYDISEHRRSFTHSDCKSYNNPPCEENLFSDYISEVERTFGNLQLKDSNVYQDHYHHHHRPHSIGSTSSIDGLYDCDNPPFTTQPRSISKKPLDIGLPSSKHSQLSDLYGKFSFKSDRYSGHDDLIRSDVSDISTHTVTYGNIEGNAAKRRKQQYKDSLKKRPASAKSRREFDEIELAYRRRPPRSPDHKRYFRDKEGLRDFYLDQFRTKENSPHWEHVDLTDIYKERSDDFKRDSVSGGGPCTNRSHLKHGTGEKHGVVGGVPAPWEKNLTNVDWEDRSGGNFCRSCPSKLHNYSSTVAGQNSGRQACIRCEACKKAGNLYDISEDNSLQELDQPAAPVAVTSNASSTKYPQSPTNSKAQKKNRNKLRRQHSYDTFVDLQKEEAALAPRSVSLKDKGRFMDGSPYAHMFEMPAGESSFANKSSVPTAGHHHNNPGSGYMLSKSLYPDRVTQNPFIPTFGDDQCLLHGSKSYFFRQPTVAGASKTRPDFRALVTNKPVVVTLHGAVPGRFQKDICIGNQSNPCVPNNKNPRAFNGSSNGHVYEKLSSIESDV
Procedure: as §1, §2, §3, §4, §5, §6, §7

[3] = target: NMDA receptor subunits 1A/2C (NR1A+NR2C) (Rattus norvegicus, UniProt P35439+Q00961); assay: Electrophysiological assay at cloned NMDA receptor subunits expressed in Xenopus oocytes, 1A/2C; type: cell-based
Chain of NMDA receptor subunits 1A/2C (NR1A+NR2C) (Q00961 20-1237, other chains not shown): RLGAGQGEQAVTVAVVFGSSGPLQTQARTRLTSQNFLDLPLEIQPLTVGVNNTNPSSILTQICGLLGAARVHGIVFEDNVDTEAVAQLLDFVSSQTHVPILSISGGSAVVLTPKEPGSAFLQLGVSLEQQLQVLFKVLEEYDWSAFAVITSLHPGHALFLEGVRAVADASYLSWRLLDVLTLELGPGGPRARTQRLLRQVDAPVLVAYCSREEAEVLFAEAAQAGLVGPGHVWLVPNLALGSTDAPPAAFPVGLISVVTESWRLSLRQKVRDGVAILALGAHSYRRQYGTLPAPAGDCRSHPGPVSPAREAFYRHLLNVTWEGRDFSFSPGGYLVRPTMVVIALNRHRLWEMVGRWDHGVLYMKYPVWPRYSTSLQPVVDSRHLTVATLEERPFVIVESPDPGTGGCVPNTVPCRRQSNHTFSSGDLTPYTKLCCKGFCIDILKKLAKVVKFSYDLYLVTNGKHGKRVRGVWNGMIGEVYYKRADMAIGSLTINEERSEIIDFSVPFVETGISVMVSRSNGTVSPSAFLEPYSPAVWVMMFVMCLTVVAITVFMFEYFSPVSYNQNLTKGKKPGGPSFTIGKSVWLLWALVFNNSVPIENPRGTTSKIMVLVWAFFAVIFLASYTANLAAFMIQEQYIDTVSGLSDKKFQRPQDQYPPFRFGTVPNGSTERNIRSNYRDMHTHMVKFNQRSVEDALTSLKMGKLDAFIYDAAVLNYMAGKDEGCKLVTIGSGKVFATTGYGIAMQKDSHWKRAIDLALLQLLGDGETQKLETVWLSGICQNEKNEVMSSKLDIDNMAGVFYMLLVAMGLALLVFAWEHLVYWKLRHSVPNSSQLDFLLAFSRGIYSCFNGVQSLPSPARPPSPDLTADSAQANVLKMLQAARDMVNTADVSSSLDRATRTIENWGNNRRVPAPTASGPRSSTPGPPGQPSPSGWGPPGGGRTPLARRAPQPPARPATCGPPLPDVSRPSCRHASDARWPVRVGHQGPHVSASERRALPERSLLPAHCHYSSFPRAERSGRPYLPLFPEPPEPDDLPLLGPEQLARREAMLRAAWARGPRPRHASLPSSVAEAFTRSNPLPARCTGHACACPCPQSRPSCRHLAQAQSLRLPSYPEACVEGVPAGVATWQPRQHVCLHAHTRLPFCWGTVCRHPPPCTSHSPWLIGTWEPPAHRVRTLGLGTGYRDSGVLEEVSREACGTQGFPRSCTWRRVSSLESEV
Procedure: as §1, §2, §3, §4, §5, §6, §7

[4] = tested on: maximal electroshock-induced seizures; assay: Maximal electroshock-induced seizures (MES); type: in vivo, mice; details: Mus musculus, read-out: MES (ED50) (mg/kg)
Procedure: Maximal Electroshock-induced Seizures
Seizures were induced by application of current (50 mA, 60 pulses/sec, 0.8 sec pulse width, 1 sec duration, d.c.) through saline-coated corneal electrodes using a Ugo Basile ECT device (Model 7801). […] A tonic seizure was defined as a hindlimb extension in excess of 90 degrees from the plane of the body. Results were treated in a quantal manner.

[5] = cloned rat NMDA receptor in Xenopus oocytes, two-electrode voltage clamp, currents activated by glutamate and glycine, read-out: Subunits (IC50(μM)) 1A/2A
[6] = cloned rat NMDA receptor in Xenopus oocytes, two-electrode voltage clamp, currents activated by glutamate and glycine, read-out: Subunits (IC50(μM)) 1A/2B
[7] = cloned rat NMDA receptor in Xenopus oocytes, two-electrode voltage clamp, currents activated by glutamate and glycine, read-out: Subunits (IC50(μM)) 1A/2C

Row | SMILES | IC50 [1, 5] | IC50 [2, 6] | IC50 [3, 7] | melting point | other results
1 | c1ccc(CC2CCCCN2CCOc2ccccc2)cc1 (centres unmarked) [Example 6, 2-Benzyl-1-(2-phenoxyethyl)piperidine] | 17 µM | 25 µM | 130 µM | – | –
2 | Br.FC(F)(F)c1cccc(OCCCCN2CCCCC2Cc2ccccc2)c1 (centres unmarked) | – | – | – | 143.5 to 144.5 °C | –
3 | O=c1[nH]c2ccc(OCCN3CCCCC3Cc3ccccc3)cc2[nH]1 (centres unmarked) [Example 30, 2-Benzyl-1-(4-(2-oxobenzimidazol-5-oxy)ethyl)piperidine] | 7.5 µM | 5 µM | 33 µM | – | –
4 | Br.c1ccc(CCCCN2CCCCC2Cc2ccccc2)cc1 (centres unmarked) | – | – | – | 133 to 135 °C | –
5 | Br.c1ccc(CCCN2CCCCC2Cc2ccccc2)cc1 (centres unmarked) [Example 4, 2-Benzyl-1-(3-phenylpropyl)piperidine, hydrobromide] | 8 µM | 15 µM | 125 µM | 155 to 157 °C | –
6 | Br.FC(F)(F)c1ccc(OCCCCN2CCCCC2Cc2ccccc2)cc1 (centres unmarked) | – | – | – | 130 to 134 °C | –
7 | Cl.Fc1ccc(OCCN2CCCCC2Cc2ccc(Cl)cc2)cc1 (centres unmarked) [Example 24, 2-(4-Chlorobenzyl)-1-(2-(4-fluorophenoxy)ethyl)piperidine hydrochloride] | 55 µM | 22 µM | 160 µM | 163 to 165 °C | –
8 | Fc1ccc(OCC[n+]2ccccc2Cc2ccc(Cl)cc2)cc1.[Br-] | – | – | – | 179 to 180 °C | –
9 | Br.Fc1cccc(OCCCCN2CCCCC2Cc2ccccc2)c1 (centres unmarked) | – | – | – | 119 to 123 °C | –
10 | c1ccc(CC2CCCCN2Cc2ccccc2)cc1 (centres unmarked) [Example 2, 1,2-Dibenzylpiperidine, hydrobromide] | 15 µM | 19 µM | 33 µM | – | –
11 | Cl.Oc1ccc(OCCN2CCCCC2Cc2ccccc2)cc1 (centres unmarked) [Example 26, 2-Benzyl-1-(2-(4-hydroxyphenoxy)ethyl)piperidine hydrochloride] | – | – | – | 215 to 216 °C | IC50 [1]: 80 µM; IC50 [2]: 15 µM; IC50 [3]: 150 µM
12 | c1ccc(CC2CCCCN2CCCCCOc2ccccc2)cc1 (centres unmarked) (as salt: hydrobromid) [Example 20, 2-Benzyl-1-(5-phenoxypentyl)piperidine hydrobromide] | – | – | – | 137.5 to 139.5 °C | –
13 | c1ccc(CC2CCCCN2CCCCCOc2ccccc2)cc1 (centres unmarked) [Example 20, 2-Benzyl-1-(5-phenoxypentyl)piperidine hydrobromide] | 14 µM | 22 µM | 70 µM | – | –
14 | O=[N+]([O-])c1ccc(OCCN2CCCCC2Cc2ccccc2)cc1 (centres unmarked) [Example 21, 2-Benzyl-1-(2-(4-nitrophenoxy)ethyl)-piperidine hydrobromide] | 60 µM | 35 µM | 240 µM | – | –
15 | Nc1ccc(OCCN2CCCCC2Cc2ccccc2)cc1 (centres unmarked) (as salt: hydrobromid) [Example 22, 1-(2-(4-Aminophenoxy)ethyl)-2-benzylpiperidine dihydrobromide] | – | – | – | 130 °C | –
16 | Br.c1ccc(CC2CCCCN2CCCOc2ccccc2)cc1 (centres unmarked) [Example 7, 2-Benzyl-1-(3-phenoxypropyl)piperidine hydrobromide] | 4 µM | 12 µM | 45 µM | 119 to 121 °C | ED50 [4]: 2.5 mg/kg
17 | Br.FC(F)(F)c1ccccc1OCCCCN1CCCCC1Cc1ccccc1 (centres unmarked) | – | – | – | 136 to 140 °C | –
18 | Oc1ccc(OCCCCN2CCCCC2Cc2ccccc2)cc1 (centres unmarked) [Example 28, 2-Benzyl-1-(4-(4-hydroxyphenoxy)butyl)piperidine hydrochloride] | 15 µM | 10 µM | 110 µM | – | –
19 | O=[N+]([O-])c1ccc(OCCN2CCCCC2Cc2ccccc2)cc1 (centres unmarked) (as salt: hydrobromid) [Example 21, 2-Benzyl-1-(2-(4-nitrophenoxy)ethyl)-piperidine hydrobromide] | – | – | – | 180 to 182 °C | –
20 | Cl.Oc1ccc(OCCN2CCCCC2Cc2ccc(Cl)cc2)cc1 (centres unmarked) [Example 25, 2-(4-Chlorobenzyl)-1-(2-(4-hydroxyphenoxy)ethyl)piperidine hydrochloride] | – | – | – | 229 to 230 °C | IC50 [1]: 62 µM; IC50 [2]: 4.2 µM; IC50 [3]: 160 µM
21 | Nc1ccc(OCCN2CCCCC2Cc2ccccc2)cc1 (centres unmarked) [Example 22, 1-(2-(4-Aminophenoxy)ethyl)-2-benzylpiperidine dihydrobromide] | 80 µM | 6 µM | 180 µM | – | –
22 | c1ccc(CCCCN2CCCCC2Cc2ccccc2)cc1 (centres unmarked) [Example 5, 2-Benzyl-1-(4-phenylbutyl)piperidine] | 5 µM | 8 µM | 55 µM | – | ED50 [4]: 4 mg/kg
23 | Br.c1ccc(CCN2CCCCC2Cc2ccccc2)cc1 (centres unmarked) | – | – | – | 162.5 to 164.5 °C | –
24 | c1ccc(CC2CCCCN2CCCCOc2ccccc2)cc1 (centres unmarked) [Example 8, 2-Benzyl-1-(4-phenoxybutyl)piperidine] | 3 µM | 8 µM | 45 µM | – | ED50 [4]: 4 mg/kg
25 | Br.c1ccc(CC2CCCCN2CCCCOc2ccccc2)cc1 (centres unmarked) | – | – | – | 100 to 103 °C | –
26 | Cl.Oc1ccc(OCCCN2CCCCC2Cc2ccccc2)cc1 (centres unmarked) [Example 27, 2-Benzyl-1-(3-(4-hydroxyphenoxy)propyl)piperidine hydrochloride] | 30 µM | 16 µM | 40 µM | 163 to 164 °C | –
